Experimental data published in patent US20240424111A1, “Degrader Compounds and Uses Thereof” (CALICO LIFE SCIENCES LLC, priority 2021, published 2024).

How the values were obtained:
PTPN2 [1] = molecular target: T1, PTPN2 (Homo sapiens, UniProt P17706); assay: HiBiT PTPN2 degradation in 293T.109 (HiBiT-PTPN2) cells, 24 hours; assay type: cell-based; conditions: 293T.109 cells
T1 construct: expressed in transfected cells; host or cells: 293T.109 (HiBiT-PTPN2), derived from 293T WT (ATCC)
T1 sequence (P17706 1-415): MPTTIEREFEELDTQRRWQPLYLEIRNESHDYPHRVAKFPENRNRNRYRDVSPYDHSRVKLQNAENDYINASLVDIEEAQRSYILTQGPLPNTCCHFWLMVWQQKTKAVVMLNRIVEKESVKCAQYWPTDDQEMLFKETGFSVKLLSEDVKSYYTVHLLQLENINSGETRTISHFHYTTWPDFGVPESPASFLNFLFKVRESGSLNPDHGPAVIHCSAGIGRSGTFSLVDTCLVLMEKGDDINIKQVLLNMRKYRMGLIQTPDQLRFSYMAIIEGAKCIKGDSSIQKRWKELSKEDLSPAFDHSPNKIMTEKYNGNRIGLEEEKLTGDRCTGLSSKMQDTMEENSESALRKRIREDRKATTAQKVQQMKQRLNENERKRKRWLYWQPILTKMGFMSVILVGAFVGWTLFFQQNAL
Outline: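 293T cells stably expressing N-terminal HiBiT-tagged PTPN2 were treated for 24 h at 37 °C with compound in an 11-point half-log series from 10 μM top concentration, in duplicate. Remaining HiBiT-PTPN2 was measured by lytic luminescence, with untreated cells as the negative control and wells without lytic reagent as the positive control.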

PTPN2 [2] = molecular target: T2, PTPN2 (Mus musculus, UniProt Q06180); assay: HiBiT PTPN2 degradation in B16F10.4 cells, 24 hours; assay type: cell-based
T2 construct: HiBiT; host or cells: B16F10.4
T2 sequence (Q06180 1-406): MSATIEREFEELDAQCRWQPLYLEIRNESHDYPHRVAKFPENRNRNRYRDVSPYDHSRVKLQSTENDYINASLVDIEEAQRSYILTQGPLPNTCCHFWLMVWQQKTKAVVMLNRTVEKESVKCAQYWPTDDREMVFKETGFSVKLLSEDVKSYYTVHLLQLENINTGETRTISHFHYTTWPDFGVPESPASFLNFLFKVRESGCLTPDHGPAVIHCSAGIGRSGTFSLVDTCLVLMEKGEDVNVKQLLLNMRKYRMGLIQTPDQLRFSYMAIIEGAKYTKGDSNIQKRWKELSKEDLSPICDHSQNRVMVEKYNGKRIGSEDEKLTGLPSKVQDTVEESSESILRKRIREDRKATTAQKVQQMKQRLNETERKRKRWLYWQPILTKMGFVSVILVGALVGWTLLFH
Outline: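 PTPN2 degradation was measured via luminescence from the Nano-Glo® HiBiT Lytic Assay kit. Compounds were dispensed into 384-well plates at an 11-point half-log titration in duplicate, starting at 10 μM. Cells were added at 5000 per well and held at 37° C. with 5% CO2 for 24 hours. Untreated cells were the negative control and cells without lytic reagent the positive control. Lytic reagents were then added and luminescence read on an EnVision™ Multilabel Reader.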

| DC50 (PTPN2 [1]) | DC50 (PTPN2 [2]) | SMILES |
| --- | --- | --- |
| 50 to 150 nM | 150 to 500 nM | Cn1c(=O)n(C2CCC(=O)NC2=O)c2ccc(N3CC4(CC(OCC(=O)Nc5ccc6c(F)c(N7CC(=O)NS7(=O)=O)c(O)cc6c5)C4)C3)cc21 (stereo not drawn) [Degrader 96] |
| 50 to 150 nM | 150 to 500 nM | Cn1c(=O)n(C2CCC(=O)NC2=O)c2ccc(N3CCCC(CC(=O)Nc4ccc5c(F)c(N6CC(=O)NS6(=O)=O)c(O)cc5c4)CC3)cc21 (stereo not drawn) [Degrader 97] |
| < 50 nM | 50 to 150 nM | COC1(CC(=O)Nc2ccc3c(F)c(N4CC(=O)NS4(=O)=O)c(O)cc3c2)CCN(c2ccc3c(c2)n(C)c(=O)n3C2CCC(=O)NC2=O)CC1 (stereo not drawn) [Degrader 99] |
| < 50 nM | 150 to 500 nM | Cc1nn(C2CCC(=O)NC2=O)c2ccc(C3CCN(CC(=O)Nc4ccc5c(F)c(N6CC(=O)NS6(=O)=O)c(O)cc5c4)CC3)cc12 (stereo not drawn) [Degrader 100] |
| ≥ 500 nM | ≥ 500 nM | Cc1nn(C2CCC(=O)NC2=O)c2ccc(N3CCC(CC(=O)Nc4ccc5c(F)c(N6CC(=O)NS6(=O)=O)c(O)cc5c4)CC3)cc12 (stereo not drawn) [Degrader 101] |
| 50 to 150 nM | 50 to 150 nM | Cn1c(=O)n(C2CCC(=O)NC2=O)c2ccc(C3CCN(C4CC(C(=O)Nc5ccc6cc(N7CC(=O)NS7(=O)=O)ccc6c5)C4)CC3(F)F)cc21 (stereo not drawn) [Degrader 102] |
| < 50 nM | ≥ 500 nM | C[C@H](C(=O)Nc1ccc2c(F)c(N3CC(=O)NS3(=O)=O)c(O)cc2c1)N1CCC(c2ccc3c(c2)n(C)c(=O)n3C2CCC(=O)NC2=O)CC1 (stereo partly drawn) [Degrader 103] |
| 150 to 500 nM | 150 to 500 nM | C[C@H](C(=O)Nc1ccc2c(F)c(N3CC(=O)NS3(=O)=O)c(O)cc2c1)C1CCN(c2ccc3c(c2)n(C)c(=O)n3C2CCC(=O)NC2=O)CC1 (stereo partly drawn) [Degrader 105] |
| 150 to 500 nM | 150 to 500 nM | C[C@@H](C(=O)Nc1ccc2c(F)c(N3CC(=O)NS3(=O)=O)c(O)cc2c1)C1CCN(c2ccc3c(c2)n(C)c(=O)n3C2CCC(=O)NC2=O)CC1 (stereo partly drawn) [Degrader 106] |
| 50 to 150 nM | 50 to 150 nM | Cn1c(=O)n(C2CCC(=O)NC2=O)c2ccc(Nc3ccn(CC(=O)Nc4ccc5c(F)c(N6CC(=O)NS6(=O)=O)c(O)cc5c4)n3)cc21 (stereo not drawn) [Degrader 107] |
| 50 to 150 nM | 50 to 150 nM | Cn1c(=O)n(C2CCC(=O)NC2=O)c2ccc(-c3ccc(NCC4CC4C(=O)Nc4ccc5c(F)c(N6CC(=O)NS6(=O)=O)c(O)cc5c4)cc3)cc21 (stereo not drawn) [Degrader 108] |
| 150 to 500 nM | 150 to 500 nM | Cn1c(=O)n(C2CCC(=O)NC2=O)c2ccc(N3[C@@H]4CC[C@H]3C[C@@H](CC(=O)Nc3ccc5c(F)c(N6CC(=O)NS6(=O)=O)c(O)cc5c3)C4)cc21 (stereo partly drawn) [Degrader 109] |
| 50 to 150 nM | 150 to 500 nM | Cn1c(=O)n(C2CCC(=O)NC2=O)c2ccc(N3[C@@H]4CC[C@H]3C[C@H](CC(=O)Nc3ccc5c(F)c(N6CC(=O)NS6(=O)=O)c(O)cc5c3)C4)cc21 (stereo partly drawn) [Degrader 110] |
| < 50 nM | 50 to 150 nM | Cn1c(=O)n(C2CCC(=O)NC2=O)c2ccc([C@@H]3CCN(CC(=O)Nc4ccc5c(F)c(N6CC(=O)NS6(=O)=O)c(O)cc5c4)C[C@H]3O)cc21 (stereo partly drawn) [Degrader 111] |
| < 50 nM | 50 to 150 nM | Cn1c(=O)n(C2CCC(=O)NC2=O)c2ccc([C@H]3CCN(CC(=O)Nc4ccc5c(F)c(N6CC(=O)NS6(=O)=O)c(O)cc5c4)C[C@@H]3O)cc21 (stereo partly drawn) [Degrader 112] |
| 50 to 150 nM | 150 to 500 nM | Cn1c(=O)n(C2CCC(=O)NC2=O)c2ccc(C3CCN(CC(=O)Nc4ccc5c(F)c(N6CC(=O)NS6(=O)=O)c(O)cc5c4)CC3=O)cc21 (stereo not drawn) [Degrader 113] |
| ≥ 500 nM | ≥ 500 nM | Cn1c(=O)n(C2CCC(=O)NC2=O)c2ccc(N3CCC(O)(CC(=O)N4CC[C@@H](c5ccc6cc(O)c(N7CC(=O)NS7(=O)=O)c(F)c6c5)C4)CC3)cc21 (stereo partly drawn) [Degrader 114] |
| 150 to 500 nM | 150 to 500 nM | Cn1c(=O)n(C2CCC(=O)NC2=O)c2ccc(N3CCC(O)(CC(=O)N4CC[C@H](c5ccc6cc(O)c(N7CC(=O)NS7(=O)=O)c(F)c6c5)C4)CC3)cc21 (stereo partly drawn) [Degrader 115] |
